In one series the test system is U251. The series can be described thus: NCI-60 screening, CNS Cancer. Format: cell-based, human.
Another series deals with A498. The series can be described thus: NCI-60 screening, Renal Cancer. Format: cell-based, human.
Another series has as its system SK-OV-3. As to the kind of experiment: NCI-60 screening, Ovarian Cancer. Format: cell-based, human.
Series [1] relates to various cancer cells lines. As to the kind of experiment: Cytotoxicity assays in various cancer cell lines. In kind it is cell-based.
In the next series the test system is EKVX. As to the kind of experiment: NCI-60 screening, Non-Small Cell Lung Cancer. In kind it is cell-based, human.
The subject of another series is OVCAR-4. As to the kind of experiment: NCI-60 screening, Ovarian Cancer. In kind it is cell-based, human.
The subject of a further series is MDA-MB-468. As to the kind of experiment: NCI-60 screening, Breast Cancer. In kind it is cell-based, human. The protocol: (§1) EC 330 was also tested using the NCI-60 Screening Methodology. The human tumor cell lines of the cancer screening panel are grown in RPMI 1640 medium containing 5% fetal bovine serum and 2 mM L-glutamine. For a typical screening experiment, cells are inoculated into 96 well microtiter plates in 100 μL at plating densities ranging from 5,000 to 40,000 cells/well depending on the doubling time of individual cell lines. After cell inoculation, the microtiter plates are incubated at 37° C., 5% CO2, 95% air and 100% relative humidity for 24 h prior to addition of experimental drugs. […]
(§2) Following drug addition, the plates are incubated for an additional 48 h at 37° C., 5% CO2, 95% air, and 100% relative humidity. […] Bound stain is subsequently solubilized with 10 mM trizma base, and the absorbance is read on an automated plate reader at a wavelength of 515 nm. […] Using the seven absorbance measurements [time zero, (Tz), control growth, (C), and test growth in the presence of drug at the five concentration levels (Ti)], the percentage growth is calculated at each of the drug concentrations levels. Percentage growth inhibition is calculated as: […]
(§3) Three dose response parameters are calculated for each experimental agent. […] The drug concentration resulting in total growth inhibition (TGI) is calculated from Ti=Tz. […]

For the next series, the system named is OVCAR-3. As to the kind of experiment: NCI-60 screening, Ovarian Cancer. Format: cell-based, human. On the procedure: as §1, §2, §3
For series [2], the system named is MDA-MB-231 (TNBC) Xenograft. As to the kind of experiment: Tumor xenograft study, MDA-MB-231. In kind it is in vivo, mice. On the procedure:
Uniform suspensions of human breast cancer MDA-MB-231 and human ovarian cancer IGROV1 cells (2×10^6) in 100 μL (0.02 carboxymethyl cellulose in phosphate buffered saline) were injected subcutaneously into the right and left flanks of 4- to 5-week-old female athymic nude mice (Charles River Laboratories). After 10 days, when the tumor […] reaches 100 mm^3, the mice were randomly allocated to 3 groups of each containing 6 animals. […] All drug was suspended in PBS followed by sonication (15 seconds with an intermittent interval of 5 seconds) for 1 minute. Tumors were allowed to reach palpability before drug intervention. Tumor size was measured every 3 days using digital Vernier Calipers and tumor volume was calculated using the ellipsoid formula [D×(d2)]/2, where D is the large diameter of the tumor and d represents the small diameter. On day 31, the mice were euthanized and tumors were harvested for protein and gene expression studies. […] FIG. 6B depicts a graph of tumor volume vs. time for the administration of EC300 at 2.5 mg/kg twice weekly in the MDA-MB-231 (TNBC) Xenograft. […] FIG. 7 depicts a graph of tumor volume vs. time for the administration of EC300 at 5 mg/kg 5 days per week in the IGROV1 (Ovarian) Xenograft. […] STAT3 phosphorylation is reduced in tumors that underwent treatment compared to control which is an indication of LIF downstream target.

Another series has as its system T47D cells. The series can be described thus: Soft agar colony formation assay. In kind it is cell-based, human. As to conditions: 100 nM concentration. The protocol: Colonies of cancer cells formed in soft agar in the presence and absence of the testing compounds is a standard assay to interpret in-vitro tumorigenic potential in the basal layer. Agar was prepared by mixing 1% DNA grade agar melted and cooled to 40° C. with an equal volume of (2×) Dulbecco's Modified Eagle's Medium (DMEM) to obtain 0.5% agar that was dispersed in a 6-well plate and allowed to solidify. A total of 0.6% agar was prepared in RPMI medium and mixed together with T47D cells (0.5×10^6 cells/mL) and immediately plated on the basal layer in the presence or absence of testing compounds. The cultures were incubated at 37° C. in a CO2 incubator for 2 weeks, and colonies were stained with 0.005% crystal violet and observed under a light microscope.

A further series relates to PC-3. As to the kind of experiment: NCI-60 screening, Prostate Cancer. In kind it is cell-based, human.

A value given as a limit tells only on which side of the number the result lay.

For the compound `C#CC(F)(F)[C@]1(O)CCC2C3CCC4=CC(=O)CCC4=C3C(c3ccc(C4CC4)cc3)C[C@@]21C` (stereo partly drawn) [EC330, 17α-(1,1-difluoro-2-propyn-1-yl)-17β-hydroxy-11β-[4-p-(cyclopropyl)phenyl]estra-4,9-dien-3-one], the “TGI (log10TGI)” value with U251 is reported as −5.78; with A498 it was −6.01; with SK-OV-3, −6.55; with EKVX, under −8.00; in the series on OVCAR-4, over −4.00; in the series with MDA-MB-468 it was −6.09. Besides, the “TGI (log10TGI)” value with OVCAR-3 is on record as −6.85; in the series with PC-3, −5.53. For the same compound, the “cytotoxicity (IC50's) in cytotoxicity assays” value in series [1] is listed as “low nanomolar”. Further, in series [2] (MDA-MB-231 breast cancer xenograft tumors), the “apoptosis in xenograft tumors” value is “induced apoptosis dose dependently”. Further, the tumor growth entry in series [2] (human triple negative breast cancer (TNBC) model) is “significantly reduced”. The colonies formed result in the series on T47D cells is on record as “complete inhibition or no colonies were formed”.

The values above are taken from patent US20200087340A1, “LIF/LIFR ANTAGONIST IN ONCOLOGY AND NONMALIGNANT DISEASES” (Evestra, Inc., priority 2018, published 2020).
